# Earlier results, collected in US20110015245A1, “BENDAMUSTINE AMPHIPHILIC CATIONIC COMPOSITIONS” (priority 2009, published 2011).
# Counter-ions that a name gives are not always drawn.
# Conditions: 23° C.
smiles,measurement,value
Cn1c(CCCC(=O)O)nc2cc(N(CCCl)CCCl)ccc21 [bendamustine hydrochloride],time stable in saline solution,9 h
